In series [1] the test system is BEnd.3 cells. The experiment in a line: Impact of integrin αvβ3 inhibitor c(RGDfK) on LA-1 uptake in BEnd.3 cells. Particulars: BEnd.3 cells pretreated 1 h with 100 μM c(RGDfK) (method: 20 nM), then 6.25 μM compound for 3 or 6 h, LC-MS/MS. It counts as in vitro ADME, Mouse. How it is done: BEnd.3 cells were seeded at 2 × 10⁶ cells/mL in […], with 5 mL DMEM containing 10% FBS. After 12 h, the medium was replaced with 5 mL fresh medium and 1 mL 20 nM c(RGDfK). After 1 h, 1 mL of 6.25 μM compound solution was added, followed by incubation for 3 or 6 h. Cells were washed twice with PBS, collected in 1 mL of HPLC-grade methanol, and centrifuged at 13,300 rpm for 5 min (6766-HS corning® High Speed Microcentrifuge, Corning, NY, USA). The supernatant was concentrated and reconstituted in 200 μL methanol before a final 10 min centrifugation. The supernatant was then used for LC–MS/MS (ACQUITY UPLC I-Class/Xevo TQ-XS, Waters, Milford, MA, USA) analysis.

The subject of series [2] is BEnd.3 cells. Kind of series: Cellular uptake in BEnd.3 cells (LC-MS/MS). It counts as in vitro ADME, Mouse. The settings on record: 6.25 μM; for Intracellular amount over time: 3 or 6 h incubation. How it is done:
BEnd.3 cells were seeded in 60mm dishes at 2 × 10⁶ cells/mL, with 5 mL of DMEM containing 10% FBS. After 12 h, the medium was replaced with 5 mL fresh medium, followed by 1 mL of 6.25 μM LA-1 solution. Cells were incubated for 3 or 6 h, washed twice with PBS, and harvested using 1 mL of HPLC-grade methanol. After vortexing for 2 min and centrifuging at 13,300 rpm for 5 min (6766-HS corning® High Speed Microcentrifuge, Corning, NY, USA), the supernatant was concentrated and reconstituted with 200 μL methanol. Samples were centrifuged again at 13,300 rpm for 10 min, and the supernatant was analyzed via LC–MS (ACQUITY UPLC I-Class/Xevo TQ-XS, Waters, Milford, MA, USA). Standard curves were prepared by serial dilutions of HPLC-grade methanol with concentrations ranging from 1 μg/mL to 100 pg/mL for each LA-1.

The nature of series [3]: In vivo pharmacokinetic study, plasma. On the set-up: species or system rat. Particulars: SD rats, intravenous tail injection 30 mg/kg, LC-MS/MS, n = 3. How it is done:
We purchased male Sprague-Dawley (SD) rats weighing between 200 and 220 g, which had been catheterized in the jugular vein, from Beijing Sinocon Pharmaceutical Technology Co., Ltd. (Beijing, China). The rats were divided into two groups: LA-1 group and loganin group, with three rats in each group. First, 200 μL of whole blood was collected from each rat at time point zero as a blank control. Subsequently, LA-1 and loganin were administered tail via injection at a dose of 30 mg/kg, dissolved in 0.9% saline. For the pharmacokinetics of the intravenously administered drugs, blood samples of 200 μL were collected from the rats at 5, 15, 30, 45 min, 1, 1.5, 2, 3, 6, 8, 12, and 24 h, using heparinized anticoagulation tubes for processing. After each blood collection, 200 μL of perfusion solution was injected into the rats through the catheter to maintain their physiological status. To obtain the rat plasma, the samples were centrifuged immediately at 3500 rpm for 10 min (5810R) after collection. Methanol (300 μL) was added to plasma samples (100 μL) to precipitate plasma proteins, then rotary evaporation at 35 °C was used to remove methanol from the samples. The LA-1 and loganin were quantified by LC–MS/MS analysis (ACQUITY UPLC I-Class/Xevo TQ-XS, Waters, Milford, MA, USA).

Series [4] in a line: H&E staining of heart, liver, spleen and kidney (biosafety in vivo). The settings on record: Figure S7. The arrangement: species or system rat. The protocol:
(§1) Fresh brain, heart, liver, spleen, and kidney tissues from rats were fixed in 4% paraformaldehyde, dehydrated, embedded in paraffin, and sectioned into 4 µm slices. For HE staining, the sections were deparaffinized using a dewaxing agent (G1128, Solarbio, Beijing, China), rehydrated in ethanol of various concentrations, stained with hematoxylin and eosin, dehydrated, and sealed with neutral resin. For Nissl staining, thin sections were immersed in the staining solution for 15 min (G1086, Solarbio, Beijing, China), washed with water, rapidly dehydrated with absolute ethanol, and cleared in xylene for 5 min. The sections were then mounted with neutral resin. Finally, the sections were observed using a light microscope (Nikon Eclipse E100, Tokyo, Japan) and analyzed with a 3D viewer.

In series [5] the test system is BEnd.3 cells. The experiment in a line: MTT cytotoxicity assay on BEnd.3 cells. It counts as cell-based, Mouse. The settings on record: 24 h treatment, all three concentrations, Figure S6. How it is done: Mouse brain microvascular endothelial cells (BEnd.3) were cultured in DMEM medium containing 10% FBS and maintained at 37 °C in a humidified atmosphere with 5% CO2. Drug solutions were prepared by diluting in PBS to the desired concentrations. Cells were seeded at a density of 4000 cells per well in 96-well plates. Once the cells had adhered, 25 μL of LA-1 or loganin solutions at varying concentrations were added to each well, followed by a 24 h incubation. BEnd.3 cells were treated with 3.12 or 6.25 μM of LA-1 or loganin for 24 h, followed by exposure to 200 μM tertiary-butylhydroperoxide (TBHP) for 4 h to induce oxidative stress. After the treatments, 25 μL of MTT solution (5 mg/mL) was added to each well, and the cells were incubated for an additional 4 h. The supernatant was then carefully removed, and the formazan crystals were dissolved in 150 μL of DMSO. Plates were shaken at room temperature for 15 min, and absorbance was measured at 490/570 nm using a microplate reader (Molecular Devices, SpectraMax ABS, San Jose, CA, USA). Cell viability = (Absorbance (drug well))/(Absorbance (control well)) × 100%
(Tetrazolium assays rely on reduction of a dye to a coloured formazan, in cell work by metabolically active cells.)

Series [6] can be described thus: Intra-brain distribution after ischemic injury. It counts as in vivo, rat. Particulars: MCAO rats, LA-1 10 mg/kg vs loganin 30 mg/kg i.v., 3 h after administration, right hemisphere, LC-MS/MS, n = 3. The protocol: To investigate the distribution of LA-1 and loganin within the brain, the experimental protocol was as follows: First, the rats were subjected to 2 h of induced ischemia, after which the filament was removed to allow for reperfusion. Subsequently, LA-1 (10 mg/kg) and loganin (30 mg/kg) were administered via tail vein injection. […] At the 3 h time point, the rats were anesthetized, perfused with saline via the heart, and then euthanized to collect brain tissue. The brain tissue was divided into left and right hemispheres, with the right hemisphere representing the ischemic region. The right hemisphere was placed into a 5 mL centrifuge tube, and 600 μL of pre-chilled PBS was added, followed by homogenization on ice. A 200 μL aliquot of the homogenate was combined with 200 μL of chromatography-grade methanol and 200 μL of chromatography-grade acetonitrile, and subjected to ultrasonic treatment for 5 min. The mixture was then centrifuged at 13,000 rpm for 10 min at 4 °C, and the supernatant was collected for concentration. After concentration, 200 μL of chromatography-grade methanol was added for reconstitution, followed by another round of high-speed centrifugation to obtain the supernatant. Finally, the target molecules were quantified using LC–MS/MS (ACQUITY UPLC I-Class/Xevo TQ-XS, Waters, Milford, MA, USA). […]

Series [7] in a line: Particle size and zeta potential. It counts as physicochemical. The settings on record: laser nanoparticle sizer Nano-ZS90. The protocol: The size distribution and zeta potential of LA-1 and loganin were determined using a laser nanoparticle sizer (Nano-ZS90, Malvern Instruments Ltd., Malvern, Worcestershire, UK).
The next series concerns MCAO rats. Kind of series: MCAO cerebral ischemia-reperfusion injury model. It counts as in vivo, rat. Particulars: for Neurological score (Zelonga): 22 h post-treatment, loganin 30 mg/kg, LA-1 10 mg/kg i.v.; for Neurological score (Zelonga) / Infarct area versus model (TTC staining): edaravone 3 mg/kg. The protocol:
A selection of 6–8-week-old Sprague–Dawley (SD) male rats weighing 250 to 280 g were divided into five groups, with 12 rats in each group: sham group, model group (MCAO), edaravone group (3 mg/kg), LA-1 group (10 mg/kg), and loganin group (30 mg/kg). In all groups of rats, anesthesia was induced with 3% isoflurane and then maintained at 2.5% isoflurane during surgery. Briefly, a 1–2 cm incision was made along the midline of the rat’s neck to expose the right carotid artery. Then, a nylon suture (A5-243650, Beijing Cinontech Co. Ltd., Beijing, China) coated with silica gel was inserted through the external carotid artery (ECA) into the middle […], which was then occluded. In this instance, the monofilament was not inserted in the sham group. After 2 h, the nylon suture was removed to allow reperfusion, and different drugs were immediately administered to the rats via the tail vein. Additionally, the sham and model groups received an equivalent dose of distilled water, with a dosage of 2 mL/kg. Cerebral blood flow was measured using a laser speckle flow imaging system (RWD Life science Co., Ltd., RFLSI ZW, Shenzhen, China) at three distinct time points: before ischemia, 2 h after ischemia, and 22 h after reperfusion. Neurological function scores for the treatment groups were assessed blindly at 22 h post-MCAO using the ZeLonga scoring system, after which the anesthetized rats were quickly euthanized. The brain tissue was harvested and then sectioned into seven slices, with six slices subjected to 2,3,5-triphenyltetrazolium chloride (TTC) staining to calculate the brain infarct area, while the remaining slice was preserved for future use.
as §1
Paraffin sections were prepared as described for HE staining. The sections were dewaxed and antigen retrieval was performed using citric acid (pH 6.0). The sections were blocked in 0.1% Triton in PBS for 15 min. TUNEL reaction solution (TDT:dUTP:buffer = 1:5:50) was added, followed by blocking with BSA. After washing, sections were incubated with the secondary antibody (Cy3-goat anti-rabbit, GB21303, 1:300) at room temperature for 50 min. Finally, after PBS washing, the sections were stained with DAPI, mounted with an anti-fading mounting medium, and images were acquired using a fluorescence microscope (Nikon Eclipse C1, Tokyo, Japan).

Series [8] can be described thus: Morphology by TEM, SEM and AFM. Particulars: SEM, AFM, samples in deionized water, dried. It counts as physicochemical. How it is done:
Each sample was further diluted to 0.1 mg/mL, and 10 μL was placed dropwise onto copper grids and dried at room temperature for 7 days. Transmission electron microscopy (TEM, […], Tokyo, Japan) and scanning electron microscopy (SEM, Hitachi, S-4800, Tokyo, Japan) were used to observe the morphology. In total, 1 mg of LA-1 or loganin was ultrasonically dispersed in 1 mL of deionized water. Then, 100 μL of the samples were dropped onto 10 × 10 mm mica sheets and air-dried overnight. The surface morphology was characterized by atomic force microscopy (AFM, Bruker, Multimode 8, Bruker, Billerica, Germany).

Where [9] appears, read: 22 h reperfusion, loganin 30 mg/kg i.v.
[10] abbreviates: LA-1 10 mg/kg, loganin 30 mg/kg i.v.

The source of these data is publication PMC11591307, “An RGD-Conjugated Prodrug Nanoparticle with Blood–Brain–Barrier Penetrability for Neuroprotection Against Cerebral Ischemia–Reperfusion Injury” (Antioxidants, 2024).

Residues, ends and D or L forms follow the SMILES beside them. *: point of attachment. X1 = C[C@@H]1[C@H]2[C@H](O[C@@H]3O[C@H](CO)[C@@H](O)[C@H](O)[C@H]3O)OC=C(C(=O)*)[C@H]2C[C@@H]1O

A word on the half-life: it is how long it takes for the measured level to halve. Regarding `CC(C)[C@H](NC(=O)[C@H](CC(=O)O)NC(=O)CNC(=O)[C@H](CCCNC(=N)N)NC(=O)C1=CO[C@@H](O[C@@H]2O[C@H](CO)[C@@H](O)[C@H](O)[C@H]2O)[C@@H]2[C@@H](C)[C@@H](O)C[C@H]12)C(=O)O` [LA-1, LA-Arg-Gly-Asp-Val] (X1-RGDV-OH), the “Decrease of cellular uptake in the presence of c(RGDfK)” value in the series on BEnd.3 cells [1] is “approximately 3 fold”. Also, the “Intracellular amount over time” value in the series with BEnd.3 cells [2] is “continued to accumulate”. The “Cellular uptake of LA-1 relative to loganin” value in the series on BEnd.3 cells [2] (6 h incubation, n = 3) is recorded as “approximately 2148 fold”. Also, the “Time at which plasma concentration was below the limit of detection / undetectable” value in series [3] came to 90 min. This molecule also yielded a half-life in series [3] (male, Sprague-Dawley, rat) of around 10 min. Moreover, in series [4], the “Pathophysiological changes in heart, liver, spleen and kidney tissue sections” value was “No significant pathophysiological changes”. In addition, in the series with BEnd.3 cells [5], the “Cell viability (cytotoxicity)” value is “no significant change”. Further, the “Brain accumulation in ischemic brain tissue” value in [6] is “dramatically higher than that of loganin”.
For the molecule `COC(=O)C1=CO[C@@H](O[C@@H]2O[C@H](CO)[C@@H](O)[C@H](O)[C@H]2O)[C@@H]2[C@@H](C)[C@@H](O)C[C@H]12` [Loganin], the “polydispersity index (PDI)” value in series [7] amounted to 0.194. Also, in series [7] (mean ± SD), the “Particle Size” value was 231.5 ± 81.23 nm and the “Zeta Potential” value is −4.16 ± 4.40 mV. The “Intracellular amount over time” value in the series with BEnd.3 cells [2] is reported as “reached a plateau after 3 h”. In [3], the Plasma half-life is around 45 min and the “Time at which plasma concentration was below the limit of detection / undetectable” value turned out to be 180 min. The “Cell viability (cytotoxicity)” value in the series on BEnd.3 cells [5] is listed as “no significant change”. In the series with MCAO rats, the “Neurological score (Zelonga)” value was “reduction trend in neurological score but without statistically significant difference”. In addition, in the series with MCAO rats (22 h reperfusion, LA-1 10 mg/kg, loganin 30 mg/kg i.v.), the “Infarct area (TTC staining)” value was determined as 16.843%. The “Infarct area versus model (TTC staining)” value with MCAO rats (setting [9]) is reported as “significant infarct area reduction”. Also, in the series on MCAO rats (setting [10]), the “H&E staining of cortical neurons” value is recorded as “improved the morphology, though to a lesser extent than LA-1” and the “Nissl staining of neurons” value is “the recovery was less pronounced compared to LA-1”. The Nanostructure morphology entry in series [8] is “irregular and unevenly dispersed”.
For the molecule `CC1=NN(c2ccccc2)C(=O)C1` [edaravone, Edaravone], the “Neurological score (Zelonga)” value in the series on MCAO rats is on record as “reduction trend in neurological score but without statistically significant difference”. The “Infarct area versus model (TTC staining)” value with MCAO rats (setting [9]) is on record as “significant infarct area reduction”.
